Measured values published in patent US9801901B2, “Alginate oligomers for use in overcoming multidrug resistance in bacteria” (priority 2009, dated 2017).
In brackets after ≈: the same amount, converted by molar mass. Read-outs that look alike come from different tables or passages of the source. Marks after values point to notes of the source that are not given here.

Columns and labels:
[1] = tested on: Pseudomonas aeruginosa MDR R22 from China (V1); assay: MIC assay, CAMHB with alginate oligomer, no visible growth; type: cell-based; conditions: V1 MDR R22 PA
Source text: (§1) The study described in Example 1 was repeated with the following strains of bacteria and antibiotics as detailed in Tables 4, 5 and 6.

[2] = tested on: Acinetobacter baumannii MDR ACB from Libya (V4); assay: as above; type: cell-based
Source text: as §1
The study described in Example 1 was repeated with the following strains of Acinetobacter baumannii, antibiotics and M-block alginate oligomer in place of OligoG CF-5/20 as detailed in Table 7. The M-block oligomer is 100% M with a DPn of 15 to 18,

[3] = tested on: V11 5702 (Wales) E. coli; assay: as above; type: cell-based; conditions: Table 5, V11 MDR E.coli
[4] = tested on: V12 5725 (Wales) Klebsiella pneumoniae; assay: as above; type: cell-based; conditions: Table 5, V12 MDR Kleb pneu
[5] = tested on: V22 6056 Acinetobacter; assay: as above; type: cell-based, Acinetobacter lwoffii; conditions: Table 5, V22 MDR Acin. lwoff
[6] = tested on: strains of Klebsiella pneumoniae displaying MDR phenotypes; assay: MIC-assay, Mueller-Hinton broth with G-block alginate, 384-well, OD600 (Table 10); type: cell-based
Source text: Minimum inhibitory concentration (MICs) of different antibiotics for strains of Klebsiella pneumoniae displaying MDR phenotypes in the presence of varying concentrations of OligoCF-5/20 (0-10%). (MIC values are expressed in μg ml^−1).

[7] = tested on: MDR Providencia stuartii; assay: MIC-assay, Mueller-Hinton broth with G-block alginate, 384-well, OD600 (Table 11); type: cell-based; conditions: Providencia stuartii (IR57 India, V7) MDR
Source text: (§2) Minimum inhibitory concentration (MICs) of different antibiotics for strains of E. coli and Providencia stuartii displaying MDR phenotypes in the presence of varying concentrations of OligoCF-5/20 (0-10%). (MIC values are expressed in μg ml^−1).

[8] = tested on: strains of E. coli displaying MDR phenotypes; assay: as above; type: cell-based; conditions: Escherichia coli, Escherichia coli (5702, Wales, V11) MDR, read-out: MIC
Source text: as §2

[9] = tested on: Staphylococcus aureus (MRSA) U50; assay: MIC-assay, Mueller-Hinton broth with G-block alginate, 384-well, OD600 (Table 12); type: cell-based; conditions: MRSA 1040s, U50 MDR
Source text: Minimum inhibitory concentration (MICs) of different antibiotics for strains of Streptococcus oralis and Staphylococcus aureus (MRSA) displaying MDR phenotypes in the presence of varying concentrations of OligoCF-5/20 (0-10%). (MIC values are expressed in μg ml^−1).

[10] = tested on: Pseudomonas aeruginosa (MDR 301, PSA, V2); assay: MIC-assay, Mueller-Hinton broth with G-block alginate, 384-well, OD600; conditions: Pseudomonas aeruginosa, Table 8, V2
[11] = tested on: Pseudomonas aeruginosa (R22, PSA, V1); assay: as above
[12] = tested on: Burkholderia cepacia (LMG18941, ATCC-BAA-246); assay: as above
[13] = tested on: Acinetobacter baumannii (MDR ACB, Libya, V4); assay: as above
[14] = tested on: Acinetobacter lwoffii (Egypt, V10); assay: as above
[15] = Table 9, G-block (OligoCF-5/20) 0%
[16] = Table 9, G-block (OligoCF-5/20) 2%
[17] = Table 9, G-block (OligoCF-5/20) 6%
[18] = Table 9, G-block (OligoCF-5/20) 10%

In the case of `CC[C@H]1OC(=O)[C@H](C)[C@@H](O[C@H]2C[C@@](C)(OC)[C@@H](O)[C@H](C)O2)[C@H](C)[C@@H](O[C@@H]2O[C@H](C)C[C@H](N(C)C)[C@H]2O)[C@](C)(O)C[C@@H](C)CN(C)[C@H](C)[C@@H](O)[C@]1(C)O` [Azithromycin], the MIC ([1]; Pseudomonas aeruginosa, Table 1, OligoCF-5/20 0G, read-out: MIC) is reported as 64 µg/mL (≈ 85.4 µM), the MIC ([1]; Pseudomonas aeruginosa, Table 1, OligoCF-5/20 +2% G, read-out: MIC) is reported as 64 µg/mL (≈ 85.4 µM) and the MIC ([1]; Pseudomonas aeruginosa, Table 1, OligoCF-5/20 +6% G, read-out: MIC) is reported as 64 µg/mL (≈ 85.4 µM). The MIC ([1]; Pseudomonas aeruginosa, Table 1, OligoCF-5/20 +10% G, read-out: MIC) was 32 µg/mL (≈ 42.7 µM), the MIC ([1]; Table 2, OligoCF-5/20 0G) was 64^† and the MIC ([1]; Table 2, OligoCF-5/20 +2% G) was 64 µg/mL (≈ 85.4 µM). For the same molecule, the MIC ([1]; Table 2, OligoCF-5/20 +6% G) was 64 µg/mL (≈ 85.4 µM), the MIC ([1]; Table 2, OligoCF-5/20 +10% G) was 32^† and the MIC ([2]; Acinetobacter baumannii, Table 1, V4 ACB (Libya), OligoCF-5/20 0G, read-out: MIC) was 8 µg/mL (≈ 10.7 µM). For the same molecule, the MIC ([2]; Acinetobacter baumannii, Table 1, V4 ACB (Libya), OligoCF-5/20 +2% G, read-out: MIC) was 2 µg/mL (≈ 2.67 µM), the MIC ([2]; Acinetobacter baumannii, Table 1, V4 ACB (Libya), OligoCF-5/20 +6% G, read-out: MIC) was < 0.25 µg/mL and the MIC ([2]; Acinetobacter baumannii, Table 1, V4 ACB (Libya), OligoCF-5/20 +10% G, read-out: MIC) was < 0.25 µg/mL. It also gave an MIC ([2]; Acinetobacter baumannii, Table 7, V4 MDR Acin baum (Libya), M-block oligomer 0M, read-out: MIC) of 8 µg/mL (≈ 10.7 µM), an MIC ([2]; Acinetobacter baumannii, Table 7, V4 MDR Acin baum (Libya), M-block oligomer +2% M, read-out: MIC) of 8 µg/mL (≈ 10.7 µM) and an MIC ([2]; Acinetobacter baumannii, Table 7, V4 MDR Acin baum (Libya), M-block oligomer +6% M, read-out: MIC) of 8 µg/mL (≈ 10.7 µM). The MIC ([2]; Acinetobacter baumannii, Table 7, V4 MDR Acin baum (Libya), M-block oligomer +10% M, read-out: MIC) was 2 µg/mL (≈ 2.67 µM), the “effect in combination with alginate oligomers” value ([2]; Example 1, Acinetobacter baumannii isolate) was “more positive effect” and the MIC ([2]; Table 2, V4 ACB (Libya), OligoCF-5/20 0G) was 8^†. For the same molecule, the MIC ([2]; Table 2, V4 ACB (Libya), OligoCF-5/20 +2% G) was 2^†, the MIC ([2]; Table 2, V4 ACB (Libya), OligoCF-5/20 +6% G) was <0.25^† and the MIC ([2]; Table 2, V4 ACB (Libya), OligoCF-5/20 +10% G) was <0.25†. The MIC ([3]; Escherichia coli, OligoCF-5/20 0G, read-out: MIC) was 32 µg/mL (≈ 42.7 µM), the MIC ([3]; OligoCF-5/20 +2% G) was 16^† μg/ml and the MIC ([3]; OligoCF-5/20 +6% G) was 16^† μg/ml. The MIC ([3]; OligoCF-5/20 +10% G) was 32 µg/mL (≈ 42.7 µM), the MIC ([4]; Klebsiella pneumoniae, OligoCF-5/20 0G, read-out: MIC) was 32 µg/mL (≈ 42.7 µM) and the MIC ([4]; OligoCF-5/20 +2% G) was 8 µg/mL (≈ 10.7 µM). For the same molecule, the MIC ([4]; OligoCF-5/20 +6% G) was 32 µg/mL (≈ 42.7 µM), the MIC ([4]; OligoCF-5/20 +10% G) was 32 µg/mL (≈ 42.7 µM) and the MIC ([5]; Acinetobacter, OligoCF-5/20 0G, read-out: MIC) was < 0.25 µg/mL. The MIC ([5]; OligoCF-5/20 +2% G) was <0.25 µg/mL, the MIC ([5]; OligoCF-5/20 +6% G) was <0.25 µg/mL and the MIC ([5]; OligoCF-5/20 +10% G) was <0.25 µg/mL. It also gave an MIC ([6]; Klebsiella pneumoniae (5712, Wales, V12) MDR, G-block (OligoCF-5/20) 0%, read-out: MIC) of 16 µg/mL (≈ 21.4 µM), an MIC ([6]; Klebsiella pneumoniae (5712, Wales, V12) MDR, G-block (OligoCF-5/20) 2%, read-out: MIC) of 16 µg/mL (≈ 21.4 µM) and an MIC ([6]; Klebsiella pneumoniae (5712, Wales, V12) MDR, G-block (OligoCF-5/20) 6%, read-out: MIC) of 16 µg/mL (≈ 21.4 µM). For the same molecule, the MIC ([6]; Klebsiella pneumoniae (5712, Wales, V12) MDR, G-block (OligoCF-5/20) 10%, read-out: MIC) was 16 µg/mL (≈ 21.4 µM), the MIC ([6]; Klebsiella pneumoniae (IR25, India, V6) MDR, G-block (OligoCF-5/20) 0%) was 128 µg/mL (≈ 171 µM) and the MIC ([6]; Klebsiella pneumoniae (IR25, India, V6) MDR, G-block (OligoCF-5/20) 2%, read-out: MIC) was 64 µg/mL (≈ 85.4 µM). For the same molecule, the MIC ([6]; Klebsiella pneumoniae (IR25, India, V6) MDR, G-block (OligoCF-5/20) 6%, read-out: MIC) was 32 µg/mL (≈ 42.7 µM), the MIC ([6]; Klebsiella pneumoniae (IR25, India, V6) MDR, G-block (OligoCF-5/20) 10%, read-out: MIC) was 16 µg/mL (≈ 21.4 µM) and the MIC ([6]; Klebsiella pneumoniae (K3, India, V8) MDR, G-block (OligoCF-5/20) 0%, read-out: MIC) was 16 µg/mL (≈ 21.4 µM). It also gave an MIC ([6]; Klebsiella pneumoniae (K3, India, V8) MDR, G-block (OligoCF-5/20) 2%, read-out: MIC) of 8 µg/mL (≈ 10.7 µM), an MIC ([6]; Klebsiella pneumoniae (K3, India, V8) MDR, G-block (OligoCF-5/20) 6%, read-out: MIC) of 16 µg/mL (≈ 21.4 µM) and an MIC ([6]; Klebsiella pneumoniae (K3, India, V8) MDR, G-block (OligoCF-5/20) 10%, read-out: MIC) of 16 µg/mL (≈ 21.4 µM). The MIC ([7]; G-block (OligoCF-5/20) 0%) was < 2 µg/mL, the MIC ([7]; G-block (OligoCF-5/20) 2%) was < 2 µg/mL and the MIC ([7]; G-block (OligoCF-5/20) 6%) was < 2 µg/mL. The MIC ([7]; G-block (OligoCF-5/20) 10%) was < 2 µg/mL, the MIC ([8]; G-block (OligoCF-5/20) 0%) was 16 µg/mL (≈ 21.4 µM) and the MIC ([8]; G-block (OligoCF-5/20) 2%) was 16 µg/mL (≈ 21.4 µM). The MIC ([8]; G-block (OligoCF-5/20) 6%) was 8 µg/mL (≈ 10.7 µM), the MIC ([8]; G-block (OligoCF-5/20) 10%) was 16 µg/mL (≈ 21.4 µM) and the MIC ([9]; G-block (OligoCF-5/20) 0%) was 512 µg/mL (≈ 684 µM). The MIC ([9]; G-block (OligoCF-5/20) 2%) was 256 µg/mL (≈ 342 µM), the MIC ([9]; G-block (OligoCF-5/20) 6%) was 256 µg/mL (≈ 342 µM) and the MIC ([9]; G-block (OligoCF-5/20) 10%) was 256 µg/mL (≈ 342 µM). For the same molecule, the MIC ([10]; G-block (OligoCF-5/20) 2%) was 64 µg/mL (≈ 85.4 µM), the MIC ([10]; G-block (OligoCF-5/20) 6%) was 64 µg/mL (≈ 85.4 µM) and the MIC ([10]; G-block (OligoCF-5/20) 10%) was 32 µg/mL (≈ 42.7 µM). For the same molecule, the MIC ([11]; Table 8, G-block (OligoCF-5/20) 2%) was 32 µg/mL (≈ 42.7 µM), the MIC ([11]; Table 8, G-block (OligoCF-5/20) 6%) was 32 µg/mL (≈ 42.7 µM) and the MIC ([11]; Table 8, G-block (OligoCF-5/20) 10%) was 8 µg/mL (≈ 10.7 µM). It also gave an MIC ([12]; ATCCBAA246|LMG18941, Table 8, G-block (OligoCF-5/20) 0%) of 64 µg/mL (≈ 85.4 µM), an MIC ([12]; ATCCBAA246|LMG18941, Table 8, G-block (OligoCF-5/20) 2%) of 32 µg/mL (≈ 42.7 µM) and an MIC ([12]; ATCCBAA246|LMG18941, Table 8, G-block (OligoCF-5/20) 6%) of 16 µg/mL (≈ 21.4 µM). The MIC ([12]; ATCCBAA246|LMG18941, Table 8, G-block (OligoCF-5/20) 10%) was 16 µg/mL (≈ 21.4 µM), the MIC [13, 15] was 16 µg/mL (≈ 21.4 µM) and the MIC [13, 16] was 2 µg/mL (≈ 2.67 µM). For the same molecule, the MIC [13, 17] was < 1 µg/mL, the MIC [13, 18] was < 1 µg/mL and the MIC [14, 15] was < 1 µg/mL. For the same molecule, the MIC [14, 16] was < 1 µg/mL, the MIC [14, 17] was < 1 µg/mL and the MIC [14, 18] was < 1 µg/mL.
